Consider ten compounds from patent EP1019392B1, “TRICYCLIC AMIDES USEFUL FOR INHIBITION OF G-PROTEIN FUNCTION AND FOR TREATMENT OF PROLIFERATIVE DISEASES” (SCHERING CORPORATION, priority 1995, dated 1997).

The term inhibition in vivo denotes the percentage by which the read-out fell short of the control. In general, IC50 refers to the concentration at which inhibition is half-maximal.

Assay [1] deals with DLD-1 (human colon carcinoma cells, ATCC # CCL 221). The assay is described as follows: In Vivo Anti-Tumor Studies, subcutaneous DLD-1 tumors. The arrangement: species or system athymic nu/nu female mice. Conditions: Mus musculus, DLD-1, po, QID, 4 weeks, range over the listed compounds; for inhibition in vivo at 10 mg/kg: 10 mg/kg p.o.; for inhibition in vivo at 50 mg/kg: 50 mg/kg p.o. The text has this:
Tumor cells (5 X 10^5 to 8 X 10^6) of DLD-1 (human colon carcinoma cells, ATCC # CCL 221) are innolculated subcutaneously into the flank of 5-6 week o;d athymic nu/nu female mice.

Assay [2] has as its target T1, geranylgeranyl protein transferase (GGPT) I (Rattus norvegicus, UniProt P53610+Q04631).
T1 construct: geranylgeranyl protein transferase (GGPT) I were partially purified from rat brain; from tissue; host or cells: rat brain
The assay is described as follows: In vitro enzyme assay: inhibition of geranylgeranyl protein transferase I (Ras-CVLL as acceptor). Format: biochemical. Conditions: Table 2; Ras-CVLL as isoprenoid acceptor. The text has this: • 1. In vitro enzyme assays: Inhibition of farnesyl protein transferase and geranylgeranyl protein transferase. Both farnesyl protein transferase (FPT) and geranylgeranyl protein transferase (GGPT) I were partially purified from rat brain by ammonium sulfate fractionation followed by Q-Sepharose (Pharmacia, Inc.) anion exchange chromatography essentially as described by Yokoyama et al (Yokoyama, K., et al., (1991), A protein geranylgeranyltransferase from bovine brain: Implications for protein prenylation specificity, Proc. Natl. Acad. Sci USA 88: 5302-5306, the disclosure of which is incorporated herein by reference thereto). Human farnesyl protein transferase was also expressed in E. coli, using cDNA clones encoding both the a and b subunits. The methods used were similar to those published (Omer, C. et al., (1993), Characterization of recombinant human farnesyl protein transferase: Cloning, expression, farnesyl diphosphate binding, and functional homology with yeast prenyl-protein transferases, Biochemistry 32:5167-5176). Human farnesyl protein transferase was partially-purified from the soluble protein fraction of E. coli as described above. The tricyclic farnesyl protein transferase inhibitors disclosed herein inhibited both human and rat enzyme with similar potencies. Two forms of val^12-Ha-Ras protein were prepared as substrates for these enzymes, differing in their carboxy terminal sequence. One form terminated in cysteine-valine-leucine-serine (Ras-CVLS) the other in cystein-valine-leucine-leucine (Ras-CVLL). Ras-CVLS is a substrate for the farnesyl protein transferase while Ras-CVLL is a substrate for geranylgeranyl protein transferase I. The cDNAs encoding these proteins were constructed so that the proteins contain an amino-terminal extension of 6 histidine residues. Both proteins were expressed in Escherichia coli and purified using metal chelate affinity chromatography. The radiolabelled isoprenyl pyrophosphate substrates, [^3H]farnesyl pyrophosphate and [^3H]geranylgeranyl pyrophosphate, were purchased from DuPont/New England Nuclear. Several methods for measuring farnesyl protein transferase activity have been described (Reiss et al 1990, Cell 62: 81; Schaber et al 1990, J. Biol. Chem. 265: 14701; Manne et al 1990, PNAS 87: 7541; and Barbacid & Manne 1993, U.S. Patent No. 5,185,248). The activity was assayed by measuring the transfer of [^3H]farnesyl from [^3H]farnesyl pyrophosphate to Ras-CVLS using conditions similar to those described by Reiss et al. 1990 (Cell 62: 81) The reaction mixture contained 40 mM Hepes, pH 7.5; 20 mM magnesium chloride; 5 mM dithiothreitol; 0.25 µM [^3H]farnesyl pyrophosphate; […] Q-Sepharose-purified farnesyl protein transferase; the indicated concentration of tricyclic compound or dimethylsulfoxide (DMSO) vehicle control (5% DMSO final); and […] Ras-CVLS in a total volume of […]. The reaction was allowed to proceed for 30 minutes at room temperature and then stopped with 0.5 ml of 4% sodium dodecyl sulfate (SDS) followed by 0.5 ml of cold 30% TCA. Samples were allowed to sit on ice for 45 minutes and precipitated Ras protein was then collected on GF/C filter paper mats using a Brandel cell harvester. Filter mats were washed once with 6% TCA, 2% SDS and radioactivity was measured in a Wallac 1204 Betaplate BS liquid scintillation counter. Percent inhibition was calculated relative to the DMSO vehicle control. The geranylgeranyl protein transferase I assay was essentially identical to the farnesyl protein transferase assay described above, with two exceptions: [^3H]geranylgeranylpyrophosphate replaced farnesyl pyrophosphate as the isoprenoid donor and Ras-CVLL was the protein acceptor. This is similar to the assay reported by Casey et al (Casey, P.J., et al., (1991), Enzymatic modification of proteins with a geranylgeranyl isoprenoid, Proc. Natl. Acad. Sci, USA 88: 8631-8635, the disclosure of which is incorporated herein by reference thereto). • 2. […]

The test system of assay [3] is T24-BAG4 human bladder carcinoma cells expressing an activated H-ras gene. Put plainly: Cell Mat Assay, T24 tumor cells. In kind it is cell-based. Conditions: Homo sapiens, read-out: Tumor (T-24) IC50.
The test system of assay [4] is SW620-BAG human colon carcinoma cells expressing an activated K-ras gene. The assay is described as follows: Cell Mat Assay, SW620 tumor cells. In kind it is cell-based.
Setting [5] is: Homo sapiens, SW-620, Mat assay.

In assay [1], `NC(=O)N1CCC(CC(=O)N2CCC(C3c4ncc(Br)cc4CCc4cc(Cl)cc(Cl)c43)CC2)CC1` (single isomer, unassigned) [Example 18] had an inhibition in vivo at 10 mg/kg of 7 to 50% and an inhibition in vivo at 50 mg/kg of 35.4 to 83%. The same compound came in with an IC50 in assay [2] of more than 50 µM.
Take `O=C(Cc1cc[n+]([O-])cc1)N1CCN([C@H]2c3ncc(Br)cc3CCc3cc(Cl)cc(Br)c32)CC1` [Example 11A]: the inhibition in vivo at 10 mg/kg in assay [1] is 7 to 50%. In assay [1], this compound returned an inhibition in vivo at 50 mg/kg of 35.4 to 83%. Further, the IC50 in assay [2] is more than 66 µM; in assay [3], less than 1600 nM; in assay [4] (Mat assay), more than 6.25 µM.
In assay [1], `O=C(Cc1cc[n+]([O-])cc1)N1CCN([C@H]2c3ccc(Cl)c(Br)c3CCc3cc(Br)cnc32)CC1` [Example 5] had an inhibition in vivo at 10 mg/kg of 7 to 50%. The same compound had an inhibition in vivo at 50 mg/kg in assay [1] of 35.4 to 83%. Besides, the results for the IC50 in assay [2], in assay [3] and in assay [4] (setting [5]) were more than 66 µM, less than 1600 nM and 6.25 µM, respectively.
For `O=C(Cc1cc[n+]([O-])cc1)N1CCC(=C2c3ccc(Cl)c(Br)c3CCc3cc(Br)cnc32)CC1` [Example 2], in that order: 7 to 50%, 35.4 to 83%, more than 300 µM, less than 1600 nM and 6.25 µM.
Compound `O=C(Cc1cc[n+]([O-])cc1)N1CCN([C@@H]2c3ccc(Cl)cc3CCc3cc(Br)cnc32)CC1` [Example 16A] registered an IC50 in assay [2] of more than 38 µM.
On to `O=C(Cc1cc[n+]([O-])cc1)N1CCC([C@H]2c3ncc(Br)cc3CCc3cc(Cl)cc(Br)c32)CC1` [Example 9], for which, in assay [1], the inhibition in vivo at 10 mg/kg fell in the range of 7 to 50%. The same compound returned an inhibition in vivo at 50 mg/kg in assay [1] of 35.4 to 83%. The IC50 in assay [2] was more than 59 µM; in assay [3], less than 1600 nM; in assay [4] (setting [5]), 6.25 µM.
Compound `O=C(Cc1cc[n+]([O-])cc1)N1CCC(C2c3ccc(Cl)c(Br)c3CCc3cc(Br)cnc32)CC1` (single isomer, unassigned) [Example 14A] had an inhibition in vivo at 10 mg/kg in assay [1] of 7 to 50%. In addition, the inhibition in vivo at 50 mg/kg in assay [1] is 35.4 to 83%. For the same compound, the figures for the IC50 in assay [2], in assay [3] and in assay [4] (setting [5]) were more than 62 µM, less than 1600 nM and 12.5 µM, respectively.
`O=C(Cc1cc[n+]([O-])cc1)N1CCN([C@H]2c3ccc(Cl)cc3CCc3cc(Br)cnc32)CC1` [Example 16B]: the inhibition in vivo at 10 mg/kg in assay [1] lay in the range of 7 to 50%. The same compound came in with an inhibition in vivo at 50 mg/kg in assay [1] of 35.4 to 83%. For the same compound, the IC50 was more than 76 µM in assay [2], less than 1600 nM in assay [3] and 25 µM in assay [4] (setting [5]).
`O=C(Cc1cc[n+]([O-])cc1)N1CCC(=C2c3ncc(Br)cc3CCc3cc(Cl)cc(Br)c32)CC1` (racemic) [Example 7]: in assay [1], the inhibition in vivo at 10 mg/kg was in the range of 7 to 50%. Besides, the inhibition in vivo at 50 mg/kg in assay [1] lay in the range of 35.4 to 83%. For the same compound, the values for the IC50 in assay [2], in assay [3] and in assay [4] (setting [5]) were more than 300 µM, less than 1600 nM and 6.25 µM, respectively.
In assay [1], `NC(=O)N1CCC(CC(=O)N2CCC(C3c4ccc(Cl)c(Br)c4CCc4cc(Br)cnc43)CC2)CC1` (single isomer, unassigned) [Example 13] had an inhibition in vivo at 10 mg/kg of 7 to 50% and an inhibition in vivo at 50 mg/kg of 35.4 to 83%. In assay [2], this compound came in with an IC50 of more than 63 µM. The IC50 in assay [3] was less than 1600 nM.
